Experimental data from patent US11098288B2, “D-type amino acid dehydrogenase” (Kureha Corporation, priority 2017, dated 2021).

B1: D-type amino acid dehydrogenase derived from T. lipolytica (Thermosyntropha lipolytica DSM 11003) (protein)
chain: MGEKIRVAIVGYGNIGRYALDAIKAAPDMELAGVVRRSSSLGDKPAELADVPVVGSIKELTGVKVALLCTPTRSVPEYAREILALGINTVDSYDIHGQLADLRLELDKVAKEHNAVAVISAGWDPGTDSMVRCMFEFMAPKGITYTNFGPGMSMGHSVAVKAVKGVKNALSMTIPLGTGVHRRMVYVELEPGADFAQVEKAVKTDPYFVKDETHVIQVEDVDALIDMGHGVLMERKGVSGGTHNQLLSFSMRINNPALTAQIMVASARASVKQKPGAYTMIQIPIIDYMYGDPDEIIRQLV

What was measured:
[1] = system: Six-mutation enzyme (Asp94Ser, Met154Leu, Val158Gly, Thr173Ile, Arg183Met, His229Asn; SEQ ID NO: 8); experiment: D-amino acid synthesis activity (amination of 2-oxo acid), six-mutation enzyme; format: biochemical, Thermosyntropha lipolytica; conditions: 5 mM 2-oxoacid, 200 mM ammonium chloride, glycine buffer pH 9.5, 50° C.; for D-amino acid synthesis activity (specific activity), Six-mutation enzyme, NADH: NADH 0.1 mM; for D-amino acid synthesis activity (specific activity), Six-mutation enzyme, NADPH: NADPH 0.1 mM
Method: Using this as a template, the gene of the enzyme was amplified by PCR using “PrimeSTAR Max DNA Polymerase” available from Takara Bio Inc. PCR was performed according to the manufacturer's instructions. The PCR reaction solution was prepared so as to contain 0.3 μM of each of the following primers and 50 ng of the above-described template DNA.
According to the manufacturer's protocol, the purified amplification product was incorporated into a pET100 vector (I available from Invitrogen) of a plasmid for protein expression to construct a six-mutation D-type amino acid dehydrogenase/pET100. The expression vector was constructed so as to incorporate a six-mutation D-type amino acid dehydrogenase gene derived from T. lipolytica downstream of the T7 promoter and […], and upstream of the T7 terminator.
(§1) The activity of the enzyme was measured by determining a decrease in absorbance at wavelength of 340 nm of NADPH or NADH […] by the catalytic reaction of the enzyme and determining the enzymatic activity by the determined decrease in absorbance as an indicator. […] The absorbance was measured by an ultraviolet-visible spectrophotometer UV-1800 (available from SHIMADZU). […]

[2] = system: Wild type D-type amino acid dehydrogenase derived from T. lipolytica; experiment: D-amino acid synthesis activity (amination of 2-oxo acid), wild type enzyme; format: biochemical, Thermosyntropha lipolytica; conditions: 5 mM 2-oxoacid, 200 mM ammonium chloride, glycine buffer pH 9.5, 50° C.; for D-amino acid synthesis activity (specific activity), Wild type, NADH: NADH 0.1 mM; for D-amino acid synthesis activity (specific activity), Wild type, NADPH: NADPH 0.1 mM
Method: as §1

[3] = system: Five-mutation enzyme (five-mutation D-type amino acid dehydrogenase, SEQ ID NO: 14); experiment: D-amino acid synthesis activity (amination of 2-oxo acid), five-mutation enzyme; format: biochemical, Thermosyntropha lipolytica; conditions: 5 mM 2-oxoacid, 200 mM ammonium chloride, glycine buffer pH 9.5, 50° C.; for D-amino acid synthesis activity (specific activity), Five-mutation enzyme, NADH: NADH 0.1 mM; for D-amino acid synthesis activity (specific activity), Five-mutation enzyme, NADPH: NADPH 0.1 mM
Method: The PCR reaction solution was prepared so as to contain 0.3 μM of each of the following primers and 50 ng of the above-described template DNA.
After PCR, 2 μL of DpnI was added to the reaction solution and treated at 37° C. for 1 hour, and E. coli DH5α was transformed using the solution after treatment. Transformed cells were coated on an LB agar plate containing antibiotic ampicillin (final concentration 100 mg/L) and cultured at 37° C. for 16 hours. The generated colonies were harvested and cultured in LB liquid medium containing ampicillin overnight. The strains were collected from the culture solution by centrifugation, and five-mutation D-type amino acid dehydrogenase/pET100 was collected according to the manufacturer's protocol using AccuPrep Plasmid Mini Extraction Kit (BIONEER).
as §1

[4] = target: D-type amino acid dehydrogenase derived from T. lipolytica (Thermosyntropha lipolytica, UniProt A0A1M5M5H3); experiment: Coenzyme dependence by activity-staining after disc gel electrophoresis; format: biochemical; conditions: 10 mM meso-diaminopimelic acid, 1.25 mM coenzyme, pH 8.0, 50° C., 30 minutes
Method: The coenzyme dependence of the enzyme was evaluated by an activity-staining method due to an enzymatic catalytic reaction. More specifically, an appropriate amount of enzyme solution was subjected to disc gel electrophoresis. […] A reaction formula is indicated below. In the following reaction formula, the D-type amino acid dehydrogenase is referred to as “meso-DAPDH”.

[5] = substrate: NC(=O)c1ccc[n+]([C@@H]2O[C@H](COP(=O)([O-])OP(=O)(O)OC[C@H]3O[C@@H](n4cnc5c(N)ncnc54)[C@H](O)[C@@H]3O)[C@@H](O)[C@H]2O)c1; experiment: purified protein, by the assay type; format: biochemical, Thermosyntropha lipolytica; conditions: other: meso-diaminopimelic acid as substrate, 50° C., values for meso-diaminopimelic acid determined using NADP^+ as the coenzyme
Method: The absorbance was measured by an ultraviolet-visible spectrophotometer UV-1800 (available from SHIMADZU). The specific activity of the enzyme was calculated from the concentration of the enzyme used and enzyme dilution rate using the obtained absorbance change and the following equation.
A turnover number (kcat) as a reaction rate parameter, a Michaelis constant (Km) value, and catalytic efficiency (kcat/Km) were determined with Igor Pro ver. 3.14 (available from WaveMetrics) based on Michaelis-Menten equation after the initial velocities were plotted against different substrates and coenzyme concentrations.

[6] = substrate: N[C@H](CCC[C@H](N)C(=O)O)C(=O)O; experiment: purified protein, by the assay type; conditions: other: meso-diaminopimelic acid as substrate, 50° C., values for meso-diaminopimelic acid determined using NADP^+ as the coenzyme

Row | Molecule | D-amino acid synthesis activity (specific activity), Six-mutation enzyme, NADH [1] | D-amino acid synthesis activity (specific activity), Six-mutation enzyme, NADPH [1] | D-amino acid synthesis activity (specific activity), Wild type, NADH [2] | D-amino acid synthesis activity (specific activity), Wild type, NADPH [2] | D-amino acid synthesis activity (specific activity), Five-mutation enzyme, NADH [3] | D-amino acid synthesis activity (specific activity), Five-mutation enzyme, NADPH [3] | coenzyme utilization (activity-staining) [4] | Km [5] | kcat [5] | kcat/Km [5] | Km [6] | kcat [6] | kcat/Km [6]
1 | CC(C)C(=O)C(=O)O [2-oxo-3-methylbutanoic acid/D-valine, 2-oxo-3-methylbutanoic acid] | 0.18 ± 0.00089 µmol/min/mg | 0.058 ± 0.0027 µmol/min/mg | 0.43 ± 0.0026 µmol/min/mg | 0.33 ± 0.0094 µmol/min/mg | 0.18 ± 0.00078 µmol/min/mg | 0.11 ± 0.0034 µmol/min/mg |  |  |  |  |  |  | 
2 | O=C(O)C(=O)Cc1ccccc1 [2-oxo-3-phenylpropanoic acid] | No Activity | 0.036 ± 0.0037 µmol/min/mg | 0.020 ± 0.0053 µmol/min/mg | No Activity | No Activity | 0.068 ± 0.0039 µmol/min/mg |  |  |  |  |  |  | 
3 | CSCCC(=O)C(=O)O [2-oxo-4-(methylthio) butanoic acid] | No Activity | 0.089 ± 0.0038 µmol/min/mg | 0.0033 ± 0.0016 µmol/min/mg | 0.059 ± 0.0065 µmol/min/mg | No Activity | 0.18 ± 0.0022 µmol/min/mg |  |  |  |  |  |  | 
4 | CC(C)CC(=O)C(=O)O [2-oxo-4-methylpentanoic acid/D-leucine, 2-oxo-4-methylpentanoic acid] | No Activity | 0.11 ± 0.0013 µmol/min/mg | 0.27 ± 0.0064 µmol/min/mg | 0.061 ± 0.00082 µmol/min/mg | 0.11 ± 0.0027 µmol/min/mg | 0.20 ± 0.0071 µmol/min/mg |  |  |  |  |  |  | 
5 | O=C(O)CC(=O)C(=O)O [2-oxobutanedioic acid/D-aspartic acid, 2-oxobutanedioic acid] | 0.12 ± 0.010 µmol/min/mg | 0.32 ± 0.0082 µmol/min/mg | 0.43 ± 0.015 µmol/min/mg | 5.7 ± 0.60 µmol/min/mg | 0.14 ± 0.014 µmol/min/mg | 0.60 ± 0.035 µmol/min/mg |  |  |  |  |  |  | 
6 | CCC(=O)C(=O)O [2-oxobutanoic acid/D-2-aminobutyric acid, 2-oxobutanoic acid] | 0.032 ± 0.0023 µmol/min/mg | 0.077 ± 0.0041 µmol/min/mg | 0.13 ± 0.0041 µmol/min/mg | 2.3 ± 0.030 µmol/min/mg | 0.044 ± 0.0049 µmol/min/mg | 0.13 ± 0.0020 µmol/min/mg |  |  |  |  |  |  | 
7 | O=C(O)CCC(=O)C(=O)O [2-oxoglutaric acid/D-glutamic acid, 2-oxoglutaric acid] | No Activity | 0.067 ± 0.0046 µmol/min/mg | No Activity | 0.27 ± 0.010 µmol/min/mg | No Activity | 0.039 ± 0.0073 µmol/min/mg |  |  |  |  |  |  | 
8 | CCCCCCC(=O)C(=O)O [2-oxooctanoic acid] | 0.0098 ± 0.0047 µmol/min/mg | 0.35 ± 0.0093 µmol/min/mg | No Activity | 0.101 ± 0.010 µmol/min/mg | 0.017 ± 0.0027 µmol/min/mg | 0.47 ± 0.012 µmol/min/mg |  |  |  |  |  |  | 
9 | CC(=O)C(=O)O [2-oxopropanoic acid/D-alanine, 2-oxopropanoic acid] | 0.0053 ± 0.0036 µmol/min/mg | 0.044 ± 0.0034 µmol/min/mg | 0.49 ± 0.016 µmol/min/mg | 5.3 ± 0.038 µmol/min/mg | 0.0077 ± 0.0015 µmol/min/mg | 0.071 ± 0.00074 µmol/min/mg |  |  |  |  |  |  | 
10 | NC(=O)c1ccc[n+]([C@@H]2O[C@H](COP(=O)([O-])OP(=O)(O)OC[C@H]3O[C@@H](n4cnc5c(N)ncnc54)[C@H](O)[C@@H]3O)[C@@H](O)[C@H]2O)c1 [NAD^+] |  |  |  |  |  |  | utilized |  |  |  |  |  | 
11 | NADP^+ |  |  |  |  |  |  | utilized |  |  |  |  |  | 
12 | B1 |  |  |  |  |  |  |  | 14.8 mM | 77.5 s⁻¹ | 5220 M⁻¹ s⁻¹ | 5.68 mM | 73.7 s⁻¹ | 13000 M⁻¹ s⁻¹
